# Measured values taken from ChEMBL document CHEMBL6078713, “Synthesis and mechanistic studies of 4-aminoquinoline-Isatin molecular hybrids and Schiff's bases as promising antimicrobial agents” (Eur J Med Chem, 2025).
# Active and inactive are the calls of the source. The calls are words filed in the database; no cut-off is given here.
# Key:
# Staphylococcus aureus [1] = assay: Antibacterial activity against Staphylococcus aureus MTCC 902 assessed as diameter of zone of inhibition at 500 ug/ml by agar disk diffusion method; assay type: functional; conditions: read-out: DIZ
# Salmonella typhi [2] = assay: Synergistic antibacterial activity against Salmonella typhi assessed as inhibition of bacterial growth incubated overnight in presence of LT-SB23 by serial dilution based spectrophotometer; conditions: Salmonella enterica
# Salmonella typhi [3] = assay: Antibacterial activity against Salmonella typhi assessed as inhibition of bacterial growth incubated overnight by serial dilution based spectrophotometer; assay type: functional, Salmonella enterica subsp. enterica serovar Typhi; conditions: Salmonella enterica
# Enterococcus faecalis [4] = assay: microbe, parasite or virus in culture; conditions: MTCC 439
# Description: Synergistic antibacterial activity against Enterococcus faecalis MTCC 439 assessed as inhibition of bacterial growth incubated overnight in presence of LT-SB5 by serial dilution based spectrophotometer
# Salmonella typhi [5] = assay: Synergistic antibacterial activity against Salmonella typhi assessed as inhibition of bacterial growth incubated overnight in presence of LT-SB7 by serial dilution based spectrophotometer; conditions: Salmonella enterica
# Enterococcus faecalis [6] = assay: Antibacterial activity against Enterococcus faecalis MTCC 439 assessed as diameter of zone of inhibition at 500 ug/ml by agar disk diffusion method; assay type: functional; conditions: read-out: DIZ
# Enterococcus faecalis [7] = assay: microbe, parasite or virus in culture; conditions: MTCC 439; remark: listed apart in the source
# Description: Synergistic antibacterial activity against Enterococcus faecalis MTCC 439 assessed as inhibition of bacterial growth incubated overnight in presence of LT-SB7 by serial dilution based spectrophotometer
# Bacillus subtilis [8] = assay: microbe, parasite or virus in culture; conditions: MTCC 736
# Description: Synergistic antibacterial activity against Bacillus subtilis MTCC 736 assessed as inhibition of bacterial growth incubated overnight in presence of LT-SB5 by serial dilution based spectrophotometer
# Escherichia coli [9] = assay: microbe, parasite or virus in culture; conditions: MTCC 443
# Description: Synergistic antibacterial activity against Escherichia coli MTCC 443 assessed as inhibition of bacterial growth incubated overnight in presence of SB5 by serial dilution based spectrophotometer
# Salmonella typhi [10] = assay: Synergistic antibacterial activity against Salmonella typhi assessed as inhibition of bacterial growth incubated overnight in presence of LT-SB5 by serial dilution based spectrophotometer; conditions: Salmonella enterica
# Bacillus subtilis [11] = assay: Antibacterial activity against Bacillus subtilis MTCC 736 assessed as inhibition of bacterial growth incubated overnight by serial dilution based spectrophotometer; assay type: functional
# Pseudomonas aeruginosa [12] = assay: Antibacterial activity against Pseudomonas aeruginosa MTCC 2453 assessed as diameter of zone of inhibition at 500 ug/ml by agar disk diffusion method; assay type: functional; conditions: read-out: DIZ
# Bacillus subtilis [13] = assay: microbe, parasite or virus in culture; conditions: MTCC 736; remark: listed apart in the source
# Description: Synergistic antibacterial activity against Bacillus subtilis MTCC 736 assessed as inhibition of bacterial growth incubated overnight in presence of LT-SB23 by serial dilution based spectrophotometer
# Enterococcus faecalis [14] = assay: Antibacterial activity against Enterococcus faecalis MTCC 439 assessed as inhibition of bacterial growth incubated overnight by serial dilution based spectrophotometer; assay type: functional
# Bacillus subtilis [15] = assay: Antibacterial activity against Bacillus subtilis MTCC 736 assessed as diameter of zone of inhibition at 500 ug/ml by agar disk diffusion method; assay type: functional; conditions: read-out: DIZ
# Enterococcus faecalis [16] = assay: microbe, parasite or virus in culture; conditions: MTCC 439; remark: listed apart in the source
# Description: Synergistic antibacterial activity against Enterococcus faecalis MTCC 439 assessed as inhibition of bacterial growth incubated overnight in presence of LT-SB23 by serial dilution based spectrophotometer
# Bacillus subtilis [17] = assay: microbe, parasite or virus in culture; conditions: MTCC 736; remark: listed apart in the source
# Description: Synergistic antibacterial activity against Bacillus subtilis MTCC 736 assessed as inhibition of bacterial growth incubated overnight in presence of LT-SB7 by serial dilution based spectrophotometer
# Bacillus subtilis [18] = assay: microbe, parasite or virus in culture; conditions: MTCC 736; remark: listed apart in the source
# Description: Synergistic antibacterial activity against Bacillus subtilis MTCC 736 assessed as inhibition of bacterial growth incubated overnight in presence of SB9 by serial dilution based spectrophotometer
# Staphylococcus aureus [19] = assay: Bacteriostatic activity against Staphylococcus aureus MTCC 902 assessed as reduction in bacterial growth measured upto 24 hrs by absorbance based assay; assay type: functional, organism-based
# Enterococcus faecalis [20] = assay: microbe, parasite or virus in culture; conditions: MTCC 439; remark: listed apart in the source
# Description: Synergistic antibacterial activity against Enterococcus faecalis MTCC 439 assessed as inhibition of bacterial growth incubated overnight in presence of SB5 by serial dilution based spectrophotometer
# Salmonella typhi [21] = assay: Antibacterial activity against Salmonella typhi assessed as diameter of zone of inhibition at 500 ug/ml by agar disk diffusion method; assay type: functional, Salmonella enterica subsp. enterica serovar Typhi; conditions: Salmonella enterica, read-out: DIZ
# Enterococcus faecalis [22] = assay: Antibacterial activity against Enterococcus faecalis assessed as inhibition of bacterial growth; assay type: functional
# Enterococcus faecalis [23] = assay: Antibacterial activity against Enterococcus faecalis MTCC 439 assessed as diameter of zone of inhibition at 0.5 times MIC incubated overnight by disk diffusion method; assay type: functional
# Staphylococcus aureus [24] = assay: Bacteriostatic activity against Staphylococcus aureus MTCC 902 assessed as lag phase of bacterial growth at 0.5 times MIC measured upto 24 hrs by absorbance based assay; assay type: functional, organism-based
# Escherichia coli [25] = assay: Antibacterial activity against Escherichia coli MTCC 443 assessed as diameter of zone of inhibition at 0.5 times MIC incubated overnight by disk diffusion method; assay type: functional
# Bacillus subtilis [26] = assay: Synergistic antibacterial activity against Bacillus subtilis MTCC 736 assessed as inhibition of bacterial growth incubated overnight in presence of ciprofloxacin by serial dilution based spectrophotometer; assay type: functional
# Escherichia coli [27] = assay: Synergistic antibacterial activity against Escherichia coli MTCC 443 assessed as inhibition of bacterial growth incubated overnight in presence of ciprofloxacin by serial dilution based spectrophotometer; assay type: functional
# Escherichia coli [28] = assay: Bactericidal activity against Escherichia coli MTCC 443 assessed as inhibition of bacterial growth incubated overnight; assay type: functional
# Escherichia coli [29] = assay: Antibacterial activity against Escherichia coli MTCC 443 assessed as diameter of zone of inhibition at 2 times MIC incubated overnight by disk diffusion method; assay type: functional
# Staphylococcus aureus [30] = assay: Bacteriostatic activity against Staphylococcus aureus MTCC 902 assessed as lag phase of bacterial growth at 1 times MIC measured upto 24 hrs by absorbance based assay; assay type: functional, organism-based
# Staphylococcus aureus [31] = assay: Bacteriostatic activity against Staphylococcus aureus MTCC 902 assessed as reduction in bacterial growth at 2 times MIC measured upto 10 hrs by absorbance based assay; assay type: functional, organism-based
# Pseudomonas aeruginosa [32] = assay: Antibacterial activity against Pseudomonas aeruginosa MTCC 2453 assessed as diameter of zone of inhibition at 2 times MIC incubated overnight by disk diffusion method; assay type: functional
# Bacillus subtilis [33] = assay: Antibacterial activity against Bacillus subtilis MTCC 736 assessed as diameter of zone of inhibition at 2 times MIC incubated overnight by disk diffusion method; assay type: functional
# Staphylococcus aureus [34] = assay: Antibacterial activity against Staphylococcus aureus MTCC 902 assessed as diameter of zone of inhibition at 2 times MIC incubated overnight by disk diffusion method; assay type: functional
# Pseudomonas aeruginosa [35] = assay: Ratio of MBC for antibacterial activity against Pseudomonas aeruginosa MTCC 2453 to MIC for bactericidal activity against Pseudomonas aeruginosa MTCC 2453; assay type: functional
# Escherichia coli [36] = assay: Synergistic antibacterial activity against Escherichia coli MTCC 443 assessed as fractional inhibitory concentration index incubated overnight in presence of ciprofloxacin by microdilution checkerboard assay; assay type: functional
# Pseudomonas aeruginosa [37] = assay: Synergistic antibacterial activity against Pseudomonas aeruginosa MTCC 2453 assessed as fractional inhibitory concentration index incubated overnight in presence of ciprofloxacin by microdilution checkerboard assay; assay type: functional
# Pseudomonas aeruginosa [38] = assay: Antibacterial activity against Pseudomonas aeruginosa MTCC 2453 assessed as inhibition of bacterial growth incubated overnight by serial dilution based spectrophotometer; assay type: functional
# Escherichia coli [39] = assay: Antibacterial activity against Escherichia coli MTCC 443 assessed as diameter of zone of inhibition at MIC incubated overnight by disk diffusion method; assay type: functional
# Staphylococcus aureus [40] = assay: Antibacterial activity against Staphylococcus aureus MTCC 902 assessed as diameter of zone of inhibition at MIC incubated overnight by disk diffusion method; assay type: functional
# Escherichia coli [41] = assay: Bacteriostatic activity against Escherichia coli MTCC 443 assessed as reduction in log phase of bacterial growth at 0.5 to 1 times MIC measured upto 24 hrs by absorbance based assay; assay type: functional, organism-based
# Pseudomonas aeruginosa [42] = assay: Bactericidal activity against Pseudomonas aeruginosa MTCC 2453 assessed as inhibition of bacterial growth incubated overnight; assay type: functional
# Enterococcus faecalis [43] = assay: Antibacterial activity against Enterococcus faecalis MTCC 439 assessed as diameter of zone of inhibition at 2 times MIC incubated overnight by disk diffusion method; assay type: functional
# Salmonella typhi [44] = assay: Antibacterial activity against Salmonella typhi assessed as diameter of zone of inhibition at MIC incubated overnight by disk diffusion method; assay type: functional, Salmonella enterica subsp. enterica serovar Typhi
# Bacillus subtilis [45] = assay: Ratio of MBC for antibacterial activity against Bacillus subtilis MTCC 736 to MIC for bactericidal activity against Bacillus subtilis MTCC 736; assay type: functional
# Enterococcus faecalis [46] = assay: Antibacterial activity against Enterococcus faecalis MTCC 439 assessed as diameter of zone of inhibition at MIC incubated overnight by disk diffusion method; assay type: functional
# Bacillus subtilis [47] = assay: Antibacterial activity against Bacillus subtilis MTCC 736 assessed as diameter of zone of inhibition at 0.5 times MIC incubated overnight by disk diffusion method; assay type: functional
# Bacillus subtilis [48] = assay: Antibacterial activity against Bacillus subtilis MTCC 736 assessed as diameter of zone of inhibition at MIC incubated overnight by disk diffusion method; assay type: functional
# Bacillus subtilis [49] = assay: Bactericidal activity against Bacillus subtilis MTCC 736 assessed as inhibition of bacterial growth incubated overnight; assay type: functional
# Salmonella typhi [50] = assay: Antibacterial activity against Salmonella typhi assessed as diameter of zone of inhibition at 2 times MIC incubated overnight by disk diffusion method; assay type: functional, Salmonella enterica subsp. enterica serovar Typhi
# Pseudomonas aeruginosa [51] = assay: Antibacterial activity against Pseudomonas aeruginosa MTCC 2453 assessed as diameter of zone of inhibition at 0.5 times MIC incubated overnight by disk diffusion method; assay type: functional
# Pseudomonas aeruginosa [52] = assay: Antibacterial activity against Pseudomonas aeruginosa MTCC 2453 assessed as diameter of zone of inhibition at MIC incubated overnight by disk diffusion method; assay type: functional
# Staphylococcus aureus [53] = assay: Antibacterial activity against Staphylococcus aureus MTCC 902 assessed as inhibition of bacterial growth incubated overnight by serial dilution based spectrophotometer; assay type: functional
# Escherichia coli [54] = assay: Bacteriostatic activity against Escherichia coli MTCC 443 assessed as reduction in bacterial growth at 2 times MIC measured upto 10 hrs by absorbance based assay; assay type: functional, organism-based
# Escherichia coli [55] = assay: Antibacterial activity against Escherichia coli MTCC 443 assessed as diameter of zone of inhibition at 500 ug/ml by agar disk diffusion method; assay type: functional; conditions: read-out: DIZ
# Pseudomonas aeruginosa [56] = assay: Synergistic antibacterial activity against Pseudomonas aeruginosa MTCC 2453 assessed as inhibition of bacterial growth incubated overnight in presence of ciprofloxacin by serial dilution based spectrophotometer; assay type: functional
# Staphylococcus aureus [57] = assay: Antibacterial activity against Staphylococcus aureus MTCC 902 assessed as diameter of zone of inhibition at 0.5 times MIC incubated overnight by disk diffusion method; assay type: functional
# Bacillus subtilis [58] = assay: Synergistic antibacterial activity against Bacillus subtilis MTCC 736 assessed as fractional inhibitory concentration index incubated overnight in presence of ciprofloxacin by microdilution checkerboard assay; assay type: functional
# Escherichia coli [59] = assay: Antibacterial activity against Escherichia coli MTCC 443 assessed as inhibition of bacterial growth incubated overnight by serial dilution based spectrophotometer; assay type: functional
structure (smiles),measurement,setting,value
O=C(O)c1cn(C2CC2)c2cc(N3CCNCC3)c(F)cc2c1=O [CIPROFLOXACIN],zone of inhibition at 500 µg/mL,Staphylococcus aureus [1],19 mm
same,MIC,Salmonella typhi [2],0.031 mg/L
same,MIC,Salmonella typhi [3],0.5 mg/L
same,MIC,Enterococcus faecalis [4],0.5 mg/L
same,MIC,Salmonella typhi [5],0.031 mg/L
same,zone of inhibition at 500 µg/mL,Enterococcus faecalis [6],18 mm
same,MIC,Enterococcus faecalis [7],0.125 mg/L
same,MIC,Bacillus subtilis [8],1 mg/L
same,MIC,Escherichia coli [9],0.062 mg/L
same,MIC,Salmonella typhi [10],0.031 mg/L
same,MIC,Bacillus subtilis [11],1 mg/L
same,zone of inhibition at 500 µg/mL,Pseudomonas aeruginosa [12],24 mm
same,MIC,Bacillus subtilis [13],1 mg/L
same,MIC,Enterococcus faecalis [14],0.5 mg/L
same,zone of inhibition at 500 µg/mL,Bacillus subtilis [15],22 mm
same,MIC,Enterococcus faecalis [16],0.125 mg/L
same,MIC,Bacillus subtilis [17],0.25 mg/L
same,MIC,Bacillus subtilis [18],0.5 mg/L
same,Activity,Staphylococcus aureus [19],Active
same,MIC,Enterococcus faecalis [20],0.5 mg/L
same,zone of inhibition at 500 µg/mL,Salmonella typhi [21],18 mm
O=C1Nc2cc(Cl)c(F)cc2/C1=N\NC(=O)c1cc(-c2cccc(Br)c2)n[nH]1,MIC,Enterococcus faecalis [22],8 mg/L
O=C1Nc2cc(Cl)ccc2/C1=N/CCNc1ccnc2cc(Cl)ccc12,zone of inhibition at 500 µg/mL,Staphylococcus aureus [1],8 mm
same,diameter of the inhibition zone (DIZ),Enterococcus faecalis [23],8 mm
same,Activity,Staphylococcus aureus [24],inactive
same,diameter of the inhibition zone (DIZ),Escherichia coli [25],9 mm
same,MIC,Bacillus subtilis [26],64 mg/L
same,MIC,Salmonella typhi [3],> 512 mg/L
same,MIC,Escherichia coli [27],16 mg/L
same,MBC,Escherichia coli [28],> 512 mg/L
same,diameter of the inhibition zone (DIZ),Escherichia coli [29],11 mm
same,Activity,Staphylococcus aureus [30],Active
same,Activity,Staphylococcus aureus [31],Active
same,diameter of the inhibition zone (DIZ),Pseudomonas aeruginosa [32],9 mm
same,diameter of the inhibition zone (DIZ),Bacillus subtilis [33],10 mm
same,diameter of the inhibition zone (DIZ),Staphylococcus aureus [34],8 mm
same,Ratio,Pseudomonas aeruginosa [35],2
same,fractional inhibitory concentration index (FICI),Escherichia coli [36],0.125
same,fractional inhibitory concentration index (FICI),Pseudomonas aeruginosa [37],1.25
same,MIC,Pseudomonas aeruginosa [38],128 mg/L
same,diameter of the inhibition zone (DIZ),Escherichia coli [39],9 mm
same,diameter of the inhibition zone (DIZ),Staphylococcus aureus [40],8 mm
same,Activity,Escherichia coli [41],Active
same,MIC,Bacillus subtilis [11],256 mg/L
same,MBC,Pseudomonas aeruginosa [42],256 mg/L
same,diameter of the inhibition zone (DIZ),Enterococcus faecalis [43],8 mm
same,diameter of the inhibition zone (DIZ),Salmonella typhi [44],7 mm
same,Ratio,Bacillus subtilis [45],1
same,diameter of the inhibition zone (DIZ),Enterococcus faecalis [46],8 mm
same,zone of inhibition at 500 µg/mL,Pseudomonas aeruginosa [12],11 mm
same,diameter of the inhibition zone (DIZ),Bacillus subtilis [47],8 mm
same,diameter of the inhibition zone (DIZ),Bacillus subtilis [48],11 mm
same,MBC,Bacillus subtilis [49],256 mg/L
same,diameter of the inhibition zone (DIZ),Salmonella typhi [50],7 mm
same,MIC,Enterococcus faecalis [14],> 512 mg/L
same,diameter of the inhibition zone (DIZ),Pseudomonas aeruginosa [51],8 mm
same,zone of inhibition at 500 µg/mL,Bacillus subtilis [15],11 mm
same,diameter of the inhibition zone (DIZ),Pseudomonas aeruginosa [52],9 mm
same,MIC,Staphylococcus aureus [53],> 512 mg/L
same,Activity,Escherichia coli [54],Active
same,zone of inhibition at 500 µg/mL,Escherichia coli [55],12 mm
same,MIC,Pseudomonas aeruginosa [56],32 mg/L
same,diameter of the inhibition zone (DIZ),Staphylococcus aureus [57],8 mm
same,fractional inhibitory concentration index (FICI),Bacillus subtilis [58],0.75
same,MIC,Escherichia coli [59],256 mg/L
